# From ChEMBL document CHEMBL2074104, “Interaction of cysteine conjugates with human and rabbit organic anion transporter 1” (J Pharmacol Exp Ther, 2003)
# Key:
# [1] = biological target: T1, Solute carrier family 22 member 6 (Homo sapiens, UniProt Q4U2R8); test: TP_TRANSPORTER: inhibition of PAH uptake in OAT1-expressing CHO cells; assay type: functional, cell-based
# T1 sequence (Q4U2R8 whole entry): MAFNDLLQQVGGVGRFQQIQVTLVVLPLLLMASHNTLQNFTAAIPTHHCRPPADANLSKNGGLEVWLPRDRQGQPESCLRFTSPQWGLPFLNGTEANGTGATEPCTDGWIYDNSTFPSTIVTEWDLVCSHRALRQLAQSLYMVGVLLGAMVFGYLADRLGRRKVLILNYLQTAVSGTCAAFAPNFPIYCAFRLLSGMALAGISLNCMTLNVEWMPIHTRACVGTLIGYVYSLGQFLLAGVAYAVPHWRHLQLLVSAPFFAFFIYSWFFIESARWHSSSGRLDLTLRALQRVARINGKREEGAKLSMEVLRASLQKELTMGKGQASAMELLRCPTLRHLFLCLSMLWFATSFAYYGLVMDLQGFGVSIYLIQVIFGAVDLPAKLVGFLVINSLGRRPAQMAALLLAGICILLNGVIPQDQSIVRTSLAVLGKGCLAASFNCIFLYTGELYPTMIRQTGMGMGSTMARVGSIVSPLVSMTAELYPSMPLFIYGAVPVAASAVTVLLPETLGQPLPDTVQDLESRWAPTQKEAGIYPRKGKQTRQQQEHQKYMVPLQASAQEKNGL
# [2] = biological target: T1, Solute carrier family 22 member 6; test: TP_TRANSPORTER: inhibition of PAH uptake in OAT1-COS7 cells; assay type: functional, cell-based, COS-7
# [3] = biological target: T1, Solute carrier family 22 member 6; test: TP_TRANSPORTER: trans-stimulation in OAT1-COS7 cells; assay type: functional, cell-based, COS-7
smiles,measurement,setting,value
N[C@@H](CSc1nc2ccccc2s1)C(=O)O,IC50,[1],9.9 µM
N[C@H](CS/C(Cl)=C/Cl)C(=O)O,IC50,[2],208 µM
N[C@H](CSc1nc2ccccc2s1)C(=O)O [BENZOTHIAZOLYLCYSTEINE],IC50,[3],9.9 µM
